Earlier results, collected in patent US12478679B2, “Pharmaceutical carrier for active substances and a pharmaceutical composition containing said carrier” (BIOTTS S A, priority 2019, dated 2025).
Read-outs that look alike come from different tables or passages of the source.

Legend:
[1] = rats
[2] = mice

## COc1cc(/C=C/C(=O)CC(=O)/C=C/c2ccc(O)c(OC)c2)ccc1O [curcumin]
[1]
  ED50, average effective dose in the carrageenan test: 48 mg/kg
[2]; first series
  ED50, average effective dose in the carrageenan test: 100.2 mg/kg
[2]; series of turmeric extracts and curcumin alone
  ED50: 8.7 mg/kg
